Assay results: ChEMBL document CHEMBL1201861, “Genomics of Drug Sensitity in Cancer screening data, Wellcome Trust Sanger Institute”
Counter-ions that a name gives are not always drawn.

Legend:
[1] = tested on: MES-SA; assay: cells; type: functional, cell-based, Homo sapiens;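 further: growth inhibition of human MES-SA cells, read out with a cell viability assay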
Description: SANGER: Inhibition of human MES-SA cell growth in a cell viability assay.

[2] = tested on: NCI-H1618; assay: cells; type: functional, cell-based, Homo sapiens;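 further: growth inhibition of human NCI-H1618 cells, measured by a cell viability assay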
Description: SANGER: Inhibition of human NCI-H1618 cell growth in a cell viability assay.

[3] = tested on: EFE-184; assay: cells; type: functional, cell-based, Homo sapiens
Description: SANGER: Inhibition of human EFE-184 cell growth in a cell viability assay.

[4] = tested on: EW-7; assay: SANGER: Inhibition of human EW-7 cell growth in a cell viability assay.; type: functional, cell-based
[5] = tested on: SNG-M; assay: cells; type: functional, cell-based, Homo sapiens
Description: SANGER: Inhibition of human SNG-M cell growth in a cell viability assay.

[6] = tested on: MFE-296; assay: SANGER: Inhibition of human MFE-296 cell growth in a cell viability assay.; type: functional, cell-based
[7] = tested on: CCF-STTG1; assay: cells; type: functional, cell-based, Homo sapiens;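 further: growth inhibition of human CCF-STTG1 cells, determined with a cell viability read-out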
Description: SANGER: Inhibition of human CCF-STTG1 cell growth in a cell viability assay.

[8] = tested on: C-4-II; assay: SANGER: Inhibition of human C-4-II cell growth in a cell viability assay.; type: functional, cell-based
[9] = tested on: IPC-298; assay: SANGER: Inhibition of human IPC-298 cell growth in a cell viability assay.; type: functional, cell-based
[10] = tested on: TT; assay: cells; type: functional, cell-based, Homo sapiens
Description: SANGER: Inhibition of human TT cell growth in a cell viability assay.

[11] = tested on: MDA-MB-468; assay: cells; type: functional, cell-based, Homo sapiens
Description: SANGER: Inhibition of human MDA-MB-468 cell growth in a cell viability assay.

[12] = tested on: NCI-H838; assay: cells; type: functional, cell-based, Homo sapiens;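 further: growth inhibition of human NCI-H838 cells, read out by a cell viability assay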
Description: SANGER: Inhibition of human NCI-H838 cell growth in a cell viability assay.

[13] = tested on: SNU-475; assay: cells; type: functional, cell-based, Homo sapiens
Description: SANGER: Inhibition of human SNU-475 cell growth in a cell viability assay.

[14] = tested on: NCI-H1734; assay: cells; type: functional, cell-based, Homo sapiens;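 further: growth inhibition of human NCI-H1734 cells, read out with a cell viability assay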
Description: SANGER: Inhibition of human NCI-H1734 cell growth in a cell viability assay.

[15] = tested on: ECC12; assay: cells; type: functional, cell-based; conditions: Homo sapiens
Description: SANGER: Inhibition of human ECC12 cell growth in a cell viability assay.

[16] = tested on: NCI-H2107; assay: SANGER: Inhibition of human NCI-H2107 cell growth in a cell viability assay.; type: functional, cell-based
[17] = tested on: NCI-H128; assay: SANGER: Inhibition of human NCI-H128 cell growth in a cell viability assay.; type: functional, cell-based
[18] = tested on: KP-N-RT-BM-1; assay: SANGER: Inhibition of human KP-N-RT-BM-1 cell growth in a cell viability assay.; type: functional, cell-based
[19] = tested on: NBsusSR; assay: cells; type: functional, cell-based, Homo sapiens; conditions: Homo sapiens, NBsusSR;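 further: growth inhibition of the human cell line, read out with a cell viability assay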
Description: SANGER: Inhibition of human NBsusSR cell growth in a cell viability assay.

[20] = tested on: ECC10; assay: cells; type: functional, cell-based, Homo sapiens; conditions: Homo sapiens, ECC10;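 further: growth inhibition of ECC10 cells, read out by a cell viability assay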
Description: SANGER: Inhibition of human ECC10 cell growth in a cell viability assay.

[21] = tested on: BALL-1; assay: cells; type: functional, cell-based, Homo sapiens; conditions: Homo sapiens, BALL-1;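 further: growth inhibition of BALL-1 cells, read out with a cell viability assay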
Description: SANGER: Inhibition of human BALL-1 cell growth in a cell viability assay.

[22] = tested on: SW900; assay: cells; type: functional, cell-based, Homo sapiens; conditions: Homo sapiens, SW900;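 further: IC50 is the concentration that inhibits SW900 cell growth, measured by a cell viability assay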
Description: SANGER: Inhibition of human SW900 cell growth in a cell viability assay.

Molecule | IC50 ([1]; Homo sapiens, MES-SA) | IC50 ([2]; Homo sapiens, NCI-H1618) | IC50 ([3]; Homo sapiens, EFE-184) | IC50 ([4]; Homo sapiens, EW-7) | IC50 ([5]; Homo sapiens, SNG-M) | IC50 ([6]; Homo sapiens, MFE-296) | IC50 ([7]; Homo sapiens, CCF-STTG1) | IC50 ([8]; Homo sapiens, C-4-II) | IC50 ([9]; Homo sapiens, IPC-298) | IC50 ([10]; Homo sapiens, TT) | IC50 ([11]; Homo sapiens, MDA-MB-468) | IC50 ([12]; Homo sapiens, NCI-H838) | IC50 ([13]; Homo sapiens, SNU-475) | IC50 ([14]; Homo sapiens, NCI-H1734) | IC50 [16] | IC50 [17] | further results
Oc1ccc2ccccc2c1SSc1c(O)ccc2ccccc12 | 23.9 µM | > 32 µM | > 32 µM | > 32 µM | > 32 µM | > 32 µM | > 32 µM | > 32 µM | > 32 µM | > 32 µM | > 32 µM | > 32 µM | > 32 µM | > 32 µM |  |  | 
O=C(O)c1ccc(-c2c[nH]c3ncc(-c4ccccc4)cc23)cc1C1CCCC1 [GSK-650394] | 5.56 µM | > 16 µM | > 16 µM | > 16 µM | 1.8 µM | 11.3 µM | 12.6 µM | 13.9 µM | > 16 µM | > 16 µM | > 16 µM | > 16 µM | > 16 µM | > 16 µM |  |  | 
C=C(c1ccc(C(=O)O)cc1)c1cc2c(cc1C)C(C)(C)CCC2(C)C [BEXAROTENE] | > 8 µM | > 8 µM | > 8 µM | > 8 µM | > 8 µM | > 8 µM | > 8 µM | > 8 µM | > 8 µM | > 8 µM | > 8 µM | > 8 µM | > 8 µM | > 8 µM |  |  | 
COc1cccc2c1C(=O)c1c(O)c3c(c(O)c1C2=O)C[C@@](O)(C(=O)CO)C[C@@H]3O[C@H]1C[C@H](N)[C@H](O)[C@H](C)O1 [DOXORUBICIN] | 0.0995 µM | 0.104 µM | > 1.02 µM | 0.0306 µM | 0.0183 µM | 0.0705 µM | 0.0355 µM | 0.473 µM | 0.196 µM | > 1.02 µM | 0.0762 µM | 0.225 µM | > 1.02 µM | 0.053 µM |  |  | 
COc1cc(N2CCN(C)CC2)ccc1Nc1ncc2c(n1)N(C)c1ccccc1C(=O)N2C |  |  |  |  |  |  |  |  |  |  |  |  |  |  | > 8 µM | > 8 µM | IC50 [15]: > 8 µM
COC1=CC(c2cc3ccccc3[nH]2)=N/C1=C\c1[nH]c(C)cc1C [OBATOCLAX MESYLATE] | 0.405 µM | 2.88 µM | 7.32 µM | < 0.0625 µM | < 0.0625 µM | 0.139 µM | 0.926 µM | 3.76 µM | < 0.0625 µM | > 16 µM | 0.917 µM | 0.528 µM | > 16 µM | 0.42 µM |  |  | 
Cc1ccc(-c2c(C(=O)CCl)n(CCCO)c3ncnc(N)c23)cc1 |  |  |  |  |  |  |  |  |  |  |  |  |  |  | > 4 µM | 3.1 µM | IC50 [18]: 2.51 µM
CCC/C=C/C=C/C(=O)O[C@H]1/C(=C/C(=O)OC)C[C@H]2C[C@H]([C@@H](C)O)OC(=O)C[C@H](O)C[C@@H]3C[C@H](OC(C)=O)C(C)(C)[C@](O)(C[C@@H]4C/C(=C/C(=O)OC)C[C@H](/C=C/C(C)(C)[C@]1(O)O2)O4)O3 [BRYOSTATIN 1] | > 0.008 µM | > 0.008 µM | > 0.008 µM | > 0.008 µM | > 0.008 µM | > 0.008 µM | > 0.008 µM | > 0.008 µM | > 0.008 µM | > 0.008 µM | > 0.008 µM | > 0.008 µM | > 0.008 µM | > 0.008 µM |  |  | 
OCCCNc1cc(-c2ccnc(Nc3cccc(Cl)c3)n2)ccn1 |  |  |  |  |  |  |  |  |  |  |  |  |  |  | 0.135 µM | > 0.256 µM | IC50 [18]: 0.148 µM
CN(C)C(=N)NC(=N)N [METFORMIN] |  |  |  |  |  |  |  |  |  |  |  |  |  |  |  |  | IC50 [19]: 9190 µM; IC50 [20]: 2280 µM; IC50 [21]: > 20000 µM; IC50 [22]: 19300 µM
CC[C@H](CO)Nc1nc(NCc2ccccc2)c2ncn(C(C)C)c2n1 [SELICICLIB] |  |  |  |  |  |  |  |  |  |  |  |  |  |  | > 16 µM | > 16 µM | IC50 [15]: > 16 µM
COc1cc2ncn(-c3cc(OCc4ccccc4C(F)(F)F)c(C(N)=O)s3)c2cc1OC [GW843682X] |  |  |  |  |  |  |  |  |  |  |  |  |  |  | > 0.256 µM | > 0.256 µM | IC50 [18]: 0.131 µM
N[C@@H](CSC(c1ccccc1)(c1ccccc1)c1ccccc1)C(=O)O [S-TRITYL-L-CYSTEINE] |  |  |  |  |  |  |  |  |  |  |  |  |  |  | > 5.12 µM | > 5.12 µM | IC50 [18]: > 5.12 µM
Cc1cc([N+](=O)[O-])ccc1NS(=O)(=O)c1cc(Cl)ccc1Cl | > 32 µM | > 32 µM | 5.8 µM | > 32 µM | 2.77 µM | 4.7 µM | 12.8 µM | 6.37 µM | 2.69 µM | 9.13 µM | 1.21 µM | 20.6 µM | > 32 µM | 8.73 µM |  |  | 
BLEOMYCIN |  |  |  |  |  |  |  |  |  |  |  |  |  |  |  |  | IC50 ([1]; mes-sa): 1.67 µM; IC50 ([2]; nci-h1618): 5.99 µM; IC50 ([3]; efe-184): 383 µM; IC50 ([4]; ew-7): 3.06 µM; IC50 ([5]; sng-m): 0.831 µM; IC50 ([6]; mfe-296): 0.153 µM; IC50 ([7]; ccf-sttg1): 4.56 µM; IC50 ([8]; c-4-ii): 0.381 µM; IC50 ([9]; ipc-298): 2.21 µM; IC50 ([10]; tt): 59.2 µM; IC50 ([11]; mda-mb-468): 67.6 µM; IC50 ([12]; nci-h838): 5.95 µM; IC50 ([13]; snu-475): 67.5 µM; IC50 ([14]; nci-h1734): 0.0174 µM
